The nature of data set [1]: G.C. analysis of CBC in the hemolysis test solution. Format: physicochemical. The procedure:
It was apparent that not all the CBC actually went into suspension. In order to determine if some of the CBC adhered to the wall of the glassware a 10 ml aliquot of the 2×10^-4 (solution a) of CBC saturated with NaCl was extracted with CHCl3 and analyzed by G.C. […] The flask was rinshed with ethanol and the washings analyzed by G.C. and found to contain 1.355 mg of CBC. The remaining 1.475 mg (50%) of CBC that could not be accounted for by G.C. analysis may have been lost during the extraction procedure or while adjusting the pH of the test solution. If the 1.475 mg CBC which could not be accounted for was actually in suspension then the maximum final concentration of CBC used in the highest CBC test level would be […] or one half the amount listed in Table 6. […] The actual activity of CBC may have been 3 to 30 times more protective of red cell membranes than an equivalent amount of PBZ.

The subject of data set [2] is Trichophyton mentagrophytes. Briefly: MIC, two-fold (broth) serial dilution, T. mentagrophytes. Format: cell-based. In short, it runs like this:
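Inoculation used a single loop of diluted (1:10) 24-hour broth culture suspended in sterile water, with incubation extended to 48–72 hours for fungi and M. smegmatis. Activity is read qualitatively by well diffusion on agar and quantitatively as MIC via twofold dilution series.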

Another data set concerns Saccharomyces cerevisiae. Briefly: agar well diffusion assay, S. cerevisiae. Format: cell-based. The following applies: from edge of agar well. The procedure: (§1) Both qualitative and quantitative screens were performed. Qualitative screening was accomplished using the agar well diffusion assay technque while quantitative screening was accomplished by the two-fold (broth) serial dilution method to determine the minimum inhibitory concentration (MIC). Innoculation was accomplished with one loop-full of a 1:10 dilution of the 24-hour-old broth culture, (fungal cultures and M.smegmatis more often required 48 to 72 hours of incubation) of the test organisms in sterile water. Streptomycin sulfate was used as a positive control for antibacterial activity while amphitericin B was used as an antifungal positive control. Organisms utilized in the screens included gram-positive, gram-negative, and acid-fast bacteria as well as different types of fungi. […] An intermediate type activity is seen where R is hydrogen. However, where R is lengthened up to C15 a decrease in activity was noted. Total saturation of the two double bonds in the compounds having a methyl side chain lead, in most cases, to an increase in both antifungal and antibacterial activity.

Data set [3] deals with Trichophyton mentagrophytes. Briefly: agar well diffusion assay, T. mentagrophytes. Format: cell-based. The following applies: one entry across 48 hr and 72 hr. Here is the method: as §1
(In agar diffusion tests the substance spreads into inoculated agar from a disc or well.)

In the next data set the test system is Aspergillus niger. Briefly: agar well diffusion assay, A. niger. The class given is cell-based. As to conditions: from edge of agar well. Here is the method: as §1

≈ marks a conversion by molar mass, not a printed value. Like-named read-outs stand apart in the source and are kept apart here.

One may read the MIC as the least concentration at which growth counts as inhibited. For `CCCCCc1cc(O)c2c(c1)OC(C)(CCC=C(C)C)C=C2` (stereo not shown) [CBC (I), 2-methyl-2(4'methyl-pent-3'-enyl)-5-hydroxy-7-pentyl chromene], in data set [1] (10 ml aliquot, G.C.), the “amount of original CBC found in solution” value is 0.3 mg. The “amount of CBC found in ethanol washings of the flask” value in data set [1] (G.C.) was 1.355 mg. Besides, the “maximum final concentration of CBC in the highest CBC test level” value in data set [1] (if unaccounted CBC was in suspension) was 50 µM. Also, the “concentration of CBC found in test solution a” value in data set [1] (nominal 2×10^-4, saturated with NaCl, extracted with CHCl3, G.C.) amounted to 20 µM. Besides, the MIC turned out to be 25.0 µg/mL (≈ 79.5 µM) in data set [2] (48 hr); 50.0 µg/mL (≈ 159 µM) in data set [2] (72 hr); 25 µg/mL (≈ 79.5 µM) in data set [2] (Trichophyton mentagrophytes, 48 h, read-out: MIC); 50 µg/mL (≈ 159 µM) in data set [2] (Trichophyton mentagrophytes, 72 h, read-out: MIC). Also, the “width of inhibition zone” value in the data set on Saccharomyces cerevisiae (48 hr) was 8. mm; in the data set with Saccharomyces cerevisiae (72 hr), 8. mm; in the data set with Aspergillus niger (48 hr) it was 2. mm; with Aspergillus niger (72 hr), 2. mm. Also, the “agar well diffusion result in words” value in data set [3] is recorded as “No growth”.

(Values after patent publication US4837228A, “Antiinflammatory and antimicrobial compounds and compositions” (The University of Mississippi, priority 1982, dated 1989).)
